According to PMC3004530 (Journal of the American Chemical Society, 2010):

How the values were obtained:
[1] = test system: HDACs 1, 2 and 3; assay: Mode of inhibition / deacetylation progression; assay type: biochemical
[2] = target: HDAC8 (Homo sapiens, UniProt Q9BY41)
[3] = target: HDAC6 (Homo sapiens, UniProt Q9UBN7)
[4] = target: HDAC1 (Homo sapiens, UniProt Q13547); assay: HDAC1 biochemical inhibition assay; conditions: read-out: IC50 HDAC1
[5] = target: HDAC3 (Homo sapiens, UniProt O15379); assay: HDAC3 biochemical inhibition assay; conditions: read-out: IC50 HDAC3
Chain of HDAC3 (O15379 whole entry, species assumed): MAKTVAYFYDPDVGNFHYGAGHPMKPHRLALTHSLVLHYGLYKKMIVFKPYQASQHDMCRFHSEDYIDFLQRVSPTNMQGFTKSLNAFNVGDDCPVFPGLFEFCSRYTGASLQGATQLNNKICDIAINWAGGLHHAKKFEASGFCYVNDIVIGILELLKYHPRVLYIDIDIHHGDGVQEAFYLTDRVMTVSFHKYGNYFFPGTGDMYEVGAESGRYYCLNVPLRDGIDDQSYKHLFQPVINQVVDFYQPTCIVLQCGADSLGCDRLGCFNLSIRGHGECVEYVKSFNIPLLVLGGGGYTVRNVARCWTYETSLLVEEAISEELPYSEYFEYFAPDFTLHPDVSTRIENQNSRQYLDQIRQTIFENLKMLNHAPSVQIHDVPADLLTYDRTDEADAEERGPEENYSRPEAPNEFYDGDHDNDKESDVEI
Chain of HDAC3 (Q9Y618 395-489 partner limits assumed, species assumed): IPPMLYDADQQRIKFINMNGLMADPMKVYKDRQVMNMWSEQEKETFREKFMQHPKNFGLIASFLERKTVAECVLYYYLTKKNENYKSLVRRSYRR

[6] = test system: HDACs 4-8; assay: HDAC biochemical inhibition, HDACs 4-8; conditions: data not shown
[7] = target: HDAC2 (Homo sapiens, UniProt Q92769); assay: HDAC2 high-throughput coupled biochemical assay
Chain of HDAC2 (Q92769 whole entry, species assumed): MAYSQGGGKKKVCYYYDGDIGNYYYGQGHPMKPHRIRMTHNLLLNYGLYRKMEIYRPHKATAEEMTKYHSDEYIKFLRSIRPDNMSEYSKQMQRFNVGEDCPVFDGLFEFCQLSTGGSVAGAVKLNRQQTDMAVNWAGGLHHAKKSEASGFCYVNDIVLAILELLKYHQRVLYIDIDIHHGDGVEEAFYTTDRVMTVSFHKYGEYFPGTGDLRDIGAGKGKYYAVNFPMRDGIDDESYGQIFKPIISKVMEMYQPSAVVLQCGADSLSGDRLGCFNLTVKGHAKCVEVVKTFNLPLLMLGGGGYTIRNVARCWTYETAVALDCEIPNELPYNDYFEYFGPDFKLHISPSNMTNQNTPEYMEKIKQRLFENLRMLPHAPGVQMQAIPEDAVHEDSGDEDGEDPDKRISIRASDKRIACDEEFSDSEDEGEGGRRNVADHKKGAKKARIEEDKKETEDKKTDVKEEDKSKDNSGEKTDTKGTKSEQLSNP

[8] = test system: HDAC; conditions: cited from earlier work

Chain of HDAC8 (Q9BY41 whole entry, species assumed): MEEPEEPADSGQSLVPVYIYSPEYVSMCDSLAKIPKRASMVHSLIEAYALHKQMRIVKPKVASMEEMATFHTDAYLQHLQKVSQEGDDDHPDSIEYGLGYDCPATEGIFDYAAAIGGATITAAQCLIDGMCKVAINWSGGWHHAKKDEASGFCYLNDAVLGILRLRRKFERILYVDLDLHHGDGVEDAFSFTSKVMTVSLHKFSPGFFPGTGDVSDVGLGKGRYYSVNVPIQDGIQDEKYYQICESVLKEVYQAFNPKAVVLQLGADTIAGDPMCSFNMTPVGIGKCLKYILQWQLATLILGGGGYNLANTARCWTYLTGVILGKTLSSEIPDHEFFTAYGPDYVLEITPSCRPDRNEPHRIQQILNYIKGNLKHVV
Chain of HDAC1 (Q13547 whole entry, species assumed): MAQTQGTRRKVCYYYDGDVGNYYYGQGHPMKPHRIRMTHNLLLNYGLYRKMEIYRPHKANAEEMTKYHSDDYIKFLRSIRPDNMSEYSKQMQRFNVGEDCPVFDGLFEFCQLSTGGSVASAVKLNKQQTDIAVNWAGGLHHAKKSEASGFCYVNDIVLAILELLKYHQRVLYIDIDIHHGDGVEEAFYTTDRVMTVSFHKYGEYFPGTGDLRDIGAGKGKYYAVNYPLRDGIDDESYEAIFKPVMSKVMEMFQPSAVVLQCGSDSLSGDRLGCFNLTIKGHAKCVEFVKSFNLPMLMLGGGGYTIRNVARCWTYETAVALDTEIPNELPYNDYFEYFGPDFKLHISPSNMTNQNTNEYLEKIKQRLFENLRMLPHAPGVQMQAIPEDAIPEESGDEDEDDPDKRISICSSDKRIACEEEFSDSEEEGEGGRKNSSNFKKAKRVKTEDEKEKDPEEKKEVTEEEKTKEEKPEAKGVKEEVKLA
Chain of HDAC6 (Q9UBN7 whole entry, species assumed): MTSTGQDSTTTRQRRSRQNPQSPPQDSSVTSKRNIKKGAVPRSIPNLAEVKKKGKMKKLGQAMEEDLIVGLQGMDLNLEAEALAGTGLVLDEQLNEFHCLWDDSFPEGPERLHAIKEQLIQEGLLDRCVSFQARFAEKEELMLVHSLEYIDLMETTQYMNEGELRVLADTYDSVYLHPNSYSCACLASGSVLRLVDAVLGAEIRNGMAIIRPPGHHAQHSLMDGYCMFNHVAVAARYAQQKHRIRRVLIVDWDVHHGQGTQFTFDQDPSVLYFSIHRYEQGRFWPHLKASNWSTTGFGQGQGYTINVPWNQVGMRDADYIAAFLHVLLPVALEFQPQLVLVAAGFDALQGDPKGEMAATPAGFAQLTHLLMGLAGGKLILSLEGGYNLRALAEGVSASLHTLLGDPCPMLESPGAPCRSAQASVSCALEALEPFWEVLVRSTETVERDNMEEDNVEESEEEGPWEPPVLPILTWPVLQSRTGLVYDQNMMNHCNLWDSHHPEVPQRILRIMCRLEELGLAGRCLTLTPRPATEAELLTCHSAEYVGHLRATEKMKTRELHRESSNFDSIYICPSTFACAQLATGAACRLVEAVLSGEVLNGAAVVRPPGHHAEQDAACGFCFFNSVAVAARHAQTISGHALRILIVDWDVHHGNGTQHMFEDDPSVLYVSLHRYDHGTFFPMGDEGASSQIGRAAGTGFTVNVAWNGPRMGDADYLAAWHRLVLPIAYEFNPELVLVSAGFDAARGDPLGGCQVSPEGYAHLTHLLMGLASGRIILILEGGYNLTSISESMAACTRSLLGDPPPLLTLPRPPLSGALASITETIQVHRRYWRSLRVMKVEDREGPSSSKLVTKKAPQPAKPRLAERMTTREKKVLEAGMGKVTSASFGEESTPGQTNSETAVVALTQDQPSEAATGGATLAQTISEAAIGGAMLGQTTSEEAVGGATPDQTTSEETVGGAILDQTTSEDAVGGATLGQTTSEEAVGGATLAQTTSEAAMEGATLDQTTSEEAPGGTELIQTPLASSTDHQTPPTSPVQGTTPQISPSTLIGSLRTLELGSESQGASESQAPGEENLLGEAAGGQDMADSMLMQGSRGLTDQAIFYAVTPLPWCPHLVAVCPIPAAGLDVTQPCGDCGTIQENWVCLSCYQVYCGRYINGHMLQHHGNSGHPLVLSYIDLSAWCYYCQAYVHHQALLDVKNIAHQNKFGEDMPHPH

Compound: O=C(CCCCCCC(=O)Nc1ccccc1)NO [SAHA]
- binding kinetics nature (deacetylation progression linear) [1]: fast-on/fast-off
- inhibition of HDAC8 [2]: inhibits
- inhibition of HDAC6 [3]: inhibits

Compound: C[C@@H]1CCCCO[C@@H](CN(C)Cc2ccc3c(c2)OCO3)[C@H](C)CN([C@@H](C)CO)C(=O)c2cc(N(C)C)ccc2O1 [entry 1]
- IC50 [4]: 2.7 ± 0.3 µM
- IC50 [5]: 2.7 ± 0.2 µM
- activity against HDACs 4-8 [6]: inactive
- fold improvement in HDAC2 potency ([7]; compared to lead stereoisomer (2R,5S,6R,12R)-32): > 10 fold
- IC50 ([7]; read-out: IC50 HDAC2): 6.6 ± 0.4 µM

Compound: CCC(=O)CCCCC[C@@H]1NC(=O)[C@H]2CCCCN2C(=O)[C@H]([C@@H](C)CC)NC(=O)[C@H](Cc2cn(OC)c3ccccc23)NC1=O [Apicidin]
- HDAC class selectivity [8]: selectivity for class I HDACs
- potency in HDAC biochemical assay [8]: single digit nanomolar potency
